Measurements as given in ChEMBL document CHEMBL3991601, “The target landscape of clinical kinase drugs” (Science, 2017).
Calls of active or inactive are those of the source.

Experiments:
[1] = molecular target: T1, Heme oxygenase 2 (Homo sapiens, UniProt P30519)
T1 sequence (P30519 whole entry): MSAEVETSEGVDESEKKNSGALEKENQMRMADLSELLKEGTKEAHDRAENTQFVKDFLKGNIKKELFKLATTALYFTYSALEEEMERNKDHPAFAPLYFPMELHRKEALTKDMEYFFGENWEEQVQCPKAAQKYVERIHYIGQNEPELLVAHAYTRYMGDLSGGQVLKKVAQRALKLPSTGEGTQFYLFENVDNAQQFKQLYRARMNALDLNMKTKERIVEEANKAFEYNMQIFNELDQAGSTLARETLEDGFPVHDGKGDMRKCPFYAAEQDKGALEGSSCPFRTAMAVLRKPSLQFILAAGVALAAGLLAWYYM

[2] = molecular target: T2, Dual specificity mitogen-activated protein kinase kinase 3 (Homo sapiens, UniProt P46734)
T2 sequence (P46734 whole entry): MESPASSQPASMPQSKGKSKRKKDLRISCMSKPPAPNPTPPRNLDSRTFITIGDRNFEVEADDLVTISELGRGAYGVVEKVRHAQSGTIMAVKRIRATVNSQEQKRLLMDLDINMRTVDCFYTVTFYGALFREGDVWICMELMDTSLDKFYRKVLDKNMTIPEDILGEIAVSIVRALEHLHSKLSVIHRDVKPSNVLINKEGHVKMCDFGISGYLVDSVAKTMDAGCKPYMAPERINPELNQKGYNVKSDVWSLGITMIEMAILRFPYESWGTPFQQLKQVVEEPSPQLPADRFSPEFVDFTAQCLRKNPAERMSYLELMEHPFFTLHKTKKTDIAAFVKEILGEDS

[3] = molecular target: T3, Serine/threonine-protein kinase Nek9 (Homo sapiens, UniProt Q8TD19)
T3 sequence (Q8TD19 whole entry): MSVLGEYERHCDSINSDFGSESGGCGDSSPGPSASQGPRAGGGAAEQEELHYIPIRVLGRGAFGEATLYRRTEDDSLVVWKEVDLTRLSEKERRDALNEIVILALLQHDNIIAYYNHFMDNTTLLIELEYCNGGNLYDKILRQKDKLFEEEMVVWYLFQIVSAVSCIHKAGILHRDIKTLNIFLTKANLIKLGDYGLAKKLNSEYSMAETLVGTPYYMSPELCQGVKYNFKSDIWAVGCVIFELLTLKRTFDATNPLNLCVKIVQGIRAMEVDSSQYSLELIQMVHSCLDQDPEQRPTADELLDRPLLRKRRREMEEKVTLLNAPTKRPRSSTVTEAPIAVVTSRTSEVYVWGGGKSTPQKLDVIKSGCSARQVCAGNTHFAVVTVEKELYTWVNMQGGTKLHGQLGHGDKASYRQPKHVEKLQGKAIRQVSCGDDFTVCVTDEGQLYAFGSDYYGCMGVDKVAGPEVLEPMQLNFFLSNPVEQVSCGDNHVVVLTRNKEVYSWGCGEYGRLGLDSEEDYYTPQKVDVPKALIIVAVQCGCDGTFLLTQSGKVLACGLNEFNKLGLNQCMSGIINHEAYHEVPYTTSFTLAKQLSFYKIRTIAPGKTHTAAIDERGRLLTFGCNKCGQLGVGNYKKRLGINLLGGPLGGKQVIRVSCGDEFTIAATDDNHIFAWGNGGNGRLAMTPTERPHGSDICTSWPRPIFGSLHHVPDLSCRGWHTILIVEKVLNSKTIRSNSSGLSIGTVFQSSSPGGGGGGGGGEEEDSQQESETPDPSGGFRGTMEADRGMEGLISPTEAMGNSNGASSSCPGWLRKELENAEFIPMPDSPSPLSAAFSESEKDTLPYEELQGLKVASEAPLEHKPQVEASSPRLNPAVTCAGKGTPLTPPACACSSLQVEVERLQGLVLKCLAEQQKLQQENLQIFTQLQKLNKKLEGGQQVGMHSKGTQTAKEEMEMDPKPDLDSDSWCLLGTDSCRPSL

[4] = molecular target: Activin receptor type-2B (Homo sapiens, UniProt Q13705)
[5] = molecular target: Activated CDC42 kinase 1 (Homo sapiens, UniProt Q07912)
[6] = molecular target: T4, Scaffold protein ILK (Homo sapiens, UniProt Q13418)
T4 sequence (Q13418 whole entry): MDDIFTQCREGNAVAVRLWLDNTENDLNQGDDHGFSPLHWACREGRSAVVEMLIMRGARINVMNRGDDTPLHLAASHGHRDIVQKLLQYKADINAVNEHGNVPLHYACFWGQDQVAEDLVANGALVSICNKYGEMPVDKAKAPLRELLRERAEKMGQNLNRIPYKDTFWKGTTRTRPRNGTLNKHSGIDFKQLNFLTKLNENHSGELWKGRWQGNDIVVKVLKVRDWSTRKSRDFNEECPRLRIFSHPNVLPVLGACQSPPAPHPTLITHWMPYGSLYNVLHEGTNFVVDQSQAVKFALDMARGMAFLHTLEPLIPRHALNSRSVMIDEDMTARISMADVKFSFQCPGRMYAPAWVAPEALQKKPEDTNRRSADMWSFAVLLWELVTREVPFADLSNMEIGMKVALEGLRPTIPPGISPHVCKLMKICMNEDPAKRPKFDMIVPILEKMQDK

[7] = molecular target: Serine/threonine-protein kinase 16 (Homo sapiens, UniProt O75716)
[8] = molecular target: Non-receptor tyrosine-protein kinase TYK2 (Homo sapiens, UniProt P29597)
[9] = molecular target: T5, Signal recognition particle receptor subunit alpha (Homo sapiens, UniProt P08240)
T5 sequence (P08240 whole entry): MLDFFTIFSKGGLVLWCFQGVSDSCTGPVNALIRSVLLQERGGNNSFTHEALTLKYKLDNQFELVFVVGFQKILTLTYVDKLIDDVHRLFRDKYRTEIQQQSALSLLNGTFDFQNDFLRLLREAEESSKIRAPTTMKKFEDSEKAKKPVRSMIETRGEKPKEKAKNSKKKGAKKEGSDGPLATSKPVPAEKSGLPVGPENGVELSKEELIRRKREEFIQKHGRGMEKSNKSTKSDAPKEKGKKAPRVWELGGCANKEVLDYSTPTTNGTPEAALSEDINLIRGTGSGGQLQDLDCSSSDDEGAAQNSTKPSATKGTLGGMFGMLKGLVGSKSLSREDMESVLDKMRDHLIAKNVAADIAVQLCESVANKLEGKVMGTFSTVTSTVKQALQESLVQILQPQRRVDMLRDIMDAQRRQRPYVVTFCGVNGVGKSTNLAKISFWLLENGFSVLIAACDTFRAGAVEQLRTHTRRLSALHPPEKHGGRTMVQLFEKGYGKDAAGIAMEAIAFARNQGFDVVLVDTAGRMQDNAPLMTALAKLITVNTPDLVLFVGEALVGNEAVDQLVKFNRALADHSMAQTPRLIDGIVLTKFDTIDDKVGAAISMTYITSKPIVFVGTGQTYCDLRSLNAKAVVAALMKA
Note: in the data inactive means no Kd found up to 30 µM.

Sequence of Non-receptor tyrosine-protein kinase TYK2 (P29597 whole entry): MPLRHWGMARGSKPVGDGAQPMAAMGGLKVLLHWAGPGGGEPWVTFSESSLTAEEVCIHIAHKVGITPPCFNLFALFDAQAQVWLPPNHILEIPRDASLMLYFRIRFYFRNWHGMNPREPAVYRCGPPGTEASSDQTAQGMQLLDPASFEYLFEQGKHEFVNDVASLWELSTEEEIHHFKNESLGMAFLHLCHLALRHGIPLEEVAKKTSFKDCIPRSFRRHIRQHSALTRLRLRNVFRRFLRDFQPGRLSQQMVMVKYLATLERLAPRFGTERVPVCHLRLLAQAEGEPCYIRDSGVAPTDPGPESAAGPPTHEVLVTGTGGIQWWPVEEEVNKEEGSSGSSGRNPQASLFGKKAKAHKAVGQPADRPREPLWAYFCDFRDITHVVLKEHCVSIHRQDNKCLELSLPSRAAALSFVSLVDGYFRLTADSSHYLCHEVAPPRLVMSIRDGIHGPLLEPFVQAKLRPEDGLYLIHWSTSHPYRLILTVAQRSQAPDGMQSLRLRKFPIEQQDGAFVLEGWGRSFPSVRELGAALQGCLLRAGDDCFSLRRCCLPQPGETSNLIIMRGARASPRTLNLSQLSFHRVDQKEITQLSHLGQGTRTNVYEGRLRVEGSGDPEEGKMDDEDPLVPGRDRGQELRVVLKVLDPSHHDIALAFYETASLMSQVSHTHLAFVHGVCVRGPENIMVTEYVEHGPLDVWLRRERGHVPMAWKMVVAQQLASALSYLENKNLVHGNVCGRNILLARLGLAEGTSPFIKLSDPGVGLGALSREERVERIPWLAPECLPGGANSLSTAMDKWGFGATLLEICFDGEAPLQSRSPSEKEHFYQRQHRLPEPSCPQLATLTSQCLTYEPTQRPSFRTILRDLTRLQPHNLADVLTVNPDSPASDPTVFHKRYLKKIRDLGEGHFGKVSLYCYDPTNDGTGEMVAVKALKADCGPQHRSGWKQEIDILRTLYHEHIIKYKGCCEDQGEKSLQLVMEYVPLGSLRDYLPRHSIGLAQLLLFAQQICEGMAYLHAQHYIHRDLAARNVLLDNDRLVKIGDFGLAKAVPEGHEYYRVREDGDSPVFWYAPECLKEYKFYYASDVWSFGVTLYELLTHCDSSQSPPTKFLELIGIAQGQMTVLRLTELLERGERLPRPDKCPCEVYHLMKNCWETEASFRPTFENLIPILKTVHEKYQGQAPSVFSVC
Sequence of Activin receptor type-2B (Q13705 whole entry): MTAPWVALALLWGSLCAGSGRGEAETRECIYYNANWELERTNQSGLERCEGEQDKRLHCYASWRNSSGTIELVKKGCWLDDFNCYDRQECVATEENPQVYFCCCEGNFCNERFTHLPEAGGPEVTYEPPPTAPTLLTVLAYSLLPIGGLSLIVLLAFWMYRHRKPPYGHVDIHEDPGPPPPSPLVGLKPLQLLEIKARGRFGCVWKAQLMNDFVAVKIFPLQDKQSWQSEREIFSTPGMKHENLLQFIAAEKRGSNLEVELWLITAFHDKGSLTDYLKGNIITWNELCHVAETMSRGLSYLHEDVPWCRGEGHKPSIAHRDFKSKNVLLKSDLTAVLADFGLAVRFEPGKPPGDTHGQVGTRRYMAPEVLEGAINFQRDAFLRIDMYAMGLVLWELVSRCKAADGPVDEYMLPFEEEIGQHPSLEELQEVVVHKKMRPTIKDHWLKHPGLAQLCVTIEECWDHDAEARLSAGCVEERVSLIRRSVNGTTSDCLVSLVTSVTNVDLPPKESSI
Sequence of Serine/threonine-protein kinase 16 (O75716 whole entry): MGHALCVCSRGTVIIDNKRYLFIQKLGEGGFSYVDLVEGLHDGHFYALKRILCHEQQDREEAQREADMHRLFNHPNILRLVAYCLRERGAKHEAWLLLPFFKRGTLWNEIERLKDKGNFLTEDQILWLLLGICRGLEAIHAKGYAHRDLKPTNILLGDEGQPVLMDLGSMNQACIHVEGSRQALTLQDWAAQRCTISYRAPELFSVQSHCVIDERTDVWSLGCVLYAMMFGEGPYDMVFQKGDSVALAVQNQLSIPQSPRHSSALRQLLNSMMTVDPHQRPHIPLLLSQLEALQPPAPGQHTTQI
Sequence of Activated CDC42 kinase 1 (Q07912 whole entry): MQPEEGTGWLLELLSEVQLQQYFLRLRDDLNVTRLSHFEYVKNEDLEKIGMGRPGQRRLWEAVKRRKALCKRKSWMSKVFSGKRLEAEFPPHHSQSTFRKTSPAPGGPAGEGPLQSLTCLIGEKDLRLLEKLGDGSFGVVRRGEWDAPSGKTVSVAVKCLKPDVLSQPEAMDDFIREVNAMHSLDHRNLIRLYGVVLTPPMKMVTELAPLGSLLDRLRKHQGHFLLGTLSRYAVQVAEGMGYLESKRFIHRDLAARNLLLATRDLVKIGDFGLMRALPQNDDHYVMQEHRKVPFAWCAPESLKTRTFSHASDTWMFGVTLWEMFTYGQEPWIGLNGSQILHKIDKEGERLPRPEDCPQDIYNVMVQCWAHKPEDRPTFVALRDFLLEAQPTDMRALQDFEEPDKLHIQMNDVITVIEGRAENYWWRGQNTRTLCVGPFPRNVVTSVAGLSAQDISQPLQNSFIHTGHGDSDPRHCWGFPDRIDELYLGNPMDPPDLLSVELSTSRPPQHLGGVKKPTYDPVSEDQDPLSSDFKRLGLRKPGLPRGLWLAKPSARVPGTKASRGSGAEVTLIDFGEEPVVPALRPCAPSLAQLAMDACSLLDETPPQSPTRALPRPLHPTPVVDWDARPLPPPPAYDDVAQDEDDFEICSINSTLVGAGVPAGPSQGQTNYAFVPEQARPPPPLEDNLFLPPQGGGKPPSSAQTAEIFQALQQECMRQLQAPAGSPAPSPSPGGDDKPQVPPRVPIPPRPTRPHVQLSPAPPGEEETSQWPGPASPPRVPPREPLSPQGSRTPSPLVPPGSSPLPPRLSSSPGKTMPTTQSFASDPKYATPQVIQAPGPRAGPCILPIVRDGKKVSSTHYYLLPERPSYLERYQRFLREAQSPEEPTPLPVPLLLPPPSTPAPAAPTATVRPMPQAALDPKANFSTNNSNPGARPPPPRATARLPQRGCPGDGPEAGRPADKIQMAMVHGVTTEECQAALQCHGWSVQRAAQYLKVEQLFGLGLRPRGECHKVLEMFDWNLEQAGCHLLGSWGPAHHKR

SMILES	Kd [1]	Kd [2]	Kd [3]	Kd [4]	Kd [5]	Kd [6]	Kd [7]	Kd [8]	Kd [9]
Cn1c(=O)c(F)c(Nc2ccc(I)cc2F)c2c(=O)n(C[C@@H](O)CO)cnc21 [TAK-733]	> 30 µM (inactive)	> 30 µM (inactive)	> 30 µM (inactive)	> 30 µM (inactive)	> 30 µM (inactive)	> 30 µM (inactive)	> 30 µM (inactive)	> 30 µM (inactive)	> 30 µM (inactive)
COc1cc2ncnc3c2cc1OCCCCCN(C)Cc1ccc(Br)cc1N3 [JNJ-26483327]	> 30 µM (inactive)	> 30 µM (inactive)	> 30 µM (inactive)	> 30 µM (inactive)	> 30 µM (inactive)	> 30 µM (inactive)	> 30 µM (inactive)	> 30 µM (inactive)	> 30 µM (inactive)
COc1cc2ncnc(Nc3ccc(F)c(Cl)c3)c2cc1NC(=O)/C=C/CN1CCCCC1 [DACOMITINIB ANHYDROUS]	> 30 µM (inactive)	> 30 µM (inactive)	> 30 µM (inactive)	> 30 µM (inactive)	> 30 µM (inactive)	> 30 µM (inactive)	> 30 µM (inactive)	> 30 µM (inactive)	> 30 µM (inactive)
C#Cc1cccc(Nc2ncnc3cc4c(cc23)OCCOCCOCCO4)c1 [ICOTINIB]	> 30 µM (inactive)	> 30 µM (inactive)	> 30 µM (inactive)	> 30 µM (inactive)	> 30 µM (inactive)	> 30 µM (inactive)	> 30 µM (inactive)	> 30 µM (inactive)	> 30 µM (inactive)
CC1(COc2ccc3c(c2)ncn3-c2ccc3cccc(N4CCC(N)CC4)c3n2)COC1 [CRENOLANIB]	> 30 µM (inactive)	> 30 µM (inactive)	> 30 µM (inactive)	> 30 µM (inactive)	> 30 µM (inactive)	1.33 µM	> 30 µM (inactive)	> 30 µM (inactive)	
CNC(=O)c1ccc(Nc2ncc(C(F)(F)F)c(NCc3nccnc3N(C)S(C)(=O)=O)n2)cc1 [DEFACTINIB]	> 30 µM (inactive)	> 30 µM (inactive)	> 30 µM (inactive)	> 30 µM (inactive)	> 30 µM (inactive)	> 30 µM (inactive)		> 30 µM (inactive)	> 30 µM (inactive)
CC(C)(O)CC(=O)NCCn1ccc2ncnc(Nc3ccc(Oc4cccc(C(F)(F)F)c4)c(Cl)c3)c21 [TAK-285]	> 30 µM (inactive)	> 30 µM (inactive)	> 30 µM (inactive)	> 30 µM (inactive)	> 30 µM (inactive)	> 30 µM (inactive)		> 30 µM (inactive)	> 30 µM (inactive)
COc1cc(Nc2ncc(F)c(Nc3ccc4c(n3)N(COP(=O)(O)O)C(=O)C(C)(C)O4)n2)cc(OC)c1OC [FOSTAMATINIB]	> 30 µM (inactive)	> 30 µM (inactive)	0.041 µM (active)	> 30 µM (inactive)	> 30 µM (inactive)	> 30 µM (inactive)		> 30 µM (inactive)	> 30 µM (inactive)
NC(=O)c1ccc(N(C(N)=O)c2c(F)cccc2F)nc1-c1ccc(F)cc1F [VX-702]	> 30 µM (inactive)	> 30 µM (inactive)	> 30 µM (inactive)		> 30 µM (inactive)	> 30 µM (inactive)	> 30 µM (inactive)	> 30 µM (inactive)	> 30 µM (inactive)
CCN1CCN(Cc2ccc(Nc3ncc(F)c(-c4cc(F)c5nc(C)n(C(C)C)c5c4)n3)nc2)CC1 [ABEMACICLIB]	> 30 µM (inactive)	> 30 µM (inactive)	> 30 µM (inactive)	> 30 µM (inactive)	> 30 µM (inactive)		0.495 µM (active)	> 30 µM (inactive)	> 30 µM (inactive)
COc1cccc(Nc2ncnn3ccc(CN4CC[C@@H](N)[C@H](O)C4)c23)c1 [BMS-690514]	> 30 µM (inactive)	> 30 µM (inactive)	> 30 µM (inactive)	> 30 µM (inactive)	0.208 µM (active)	> 30 µM (inactive)	> 30 µM (inactive)	> 30 µM (inactive)	
C=CC(=O)Nc1cccc(Nc2nc(Nc3ccc(N4CCN(C(C)=O)CC4)cc3OC)ncc2C(F)(F)F)c1 [ROCILETINIB]	> 30 µM (inactive)	> 30 µM (inactive)	> 30 µM (inactive)	> 30 µM (inactive)	> 30 µM (inactive)		> 30 µM (inactive)	> 30 µM (inactive)	> 30 µM (inactive)
C=CCN(/C=C1/C(=O)O[C@H](COC)[C@@]2(C)C1=C(O)C(=O)C1=C2[C@H](OC(C)=O)C[C@]2(C)C(=O)CC[C@@H]12)CC=C [SONOLISIB]	> 30 µM (inactive)	> 30 µM (inactive)	> 30 µM (inactive)	> 30 µM (inactive)	> 30 µM (inactive)	> 30 µM (inactive)	> 30 µM (inactive)	> 30 µM (inactive)	
Cc1c(NC(=O)OC[C@@H]2COCCN2)cn2ncnc(Nc3ccc4c(cnn4Cc4cccc(F)c4)c3)c12 [AC-480]	> 30 µM (inactive)	> 30 µM (inactive)	> 30 µM (inactive)	> 30 µM (inactive)	> 30 µM (inactive)	> 30 µM (inactive)	> 30 µM (inactive)	> 30 µM (inactive)	
COc1ccc(-c2ccc3ncc4c(c3c2)n(-c2ccc(N3CCNCC3)c(C(F)(F)F)c2)c(=O)n4C)cn1 [BGT-226 FREE BASE]	> 30 µM (inactive)	> 30 µM (inactive)	> 30 µM (inactive)	> 30 µM (inactive)	> 30 µM (inactive)	> 30 µM (inactive)	> 30 µM (inactive)	> 30 µM (inactive)	
